The values that follow come from ChEMBL document CHEMBL4321833, “Sugar Kick Prevents Memory Impairment” (J Med Chem, 2019).

The nature of data set [1]: Apparent permeability of the compound. The note with it: not told. The format is ADME.
Data set [2] addresses T1, Protein O-GlcNAcase (Homo sapiens, UniProt O60502).
T1 sequence (O60502 whole entry): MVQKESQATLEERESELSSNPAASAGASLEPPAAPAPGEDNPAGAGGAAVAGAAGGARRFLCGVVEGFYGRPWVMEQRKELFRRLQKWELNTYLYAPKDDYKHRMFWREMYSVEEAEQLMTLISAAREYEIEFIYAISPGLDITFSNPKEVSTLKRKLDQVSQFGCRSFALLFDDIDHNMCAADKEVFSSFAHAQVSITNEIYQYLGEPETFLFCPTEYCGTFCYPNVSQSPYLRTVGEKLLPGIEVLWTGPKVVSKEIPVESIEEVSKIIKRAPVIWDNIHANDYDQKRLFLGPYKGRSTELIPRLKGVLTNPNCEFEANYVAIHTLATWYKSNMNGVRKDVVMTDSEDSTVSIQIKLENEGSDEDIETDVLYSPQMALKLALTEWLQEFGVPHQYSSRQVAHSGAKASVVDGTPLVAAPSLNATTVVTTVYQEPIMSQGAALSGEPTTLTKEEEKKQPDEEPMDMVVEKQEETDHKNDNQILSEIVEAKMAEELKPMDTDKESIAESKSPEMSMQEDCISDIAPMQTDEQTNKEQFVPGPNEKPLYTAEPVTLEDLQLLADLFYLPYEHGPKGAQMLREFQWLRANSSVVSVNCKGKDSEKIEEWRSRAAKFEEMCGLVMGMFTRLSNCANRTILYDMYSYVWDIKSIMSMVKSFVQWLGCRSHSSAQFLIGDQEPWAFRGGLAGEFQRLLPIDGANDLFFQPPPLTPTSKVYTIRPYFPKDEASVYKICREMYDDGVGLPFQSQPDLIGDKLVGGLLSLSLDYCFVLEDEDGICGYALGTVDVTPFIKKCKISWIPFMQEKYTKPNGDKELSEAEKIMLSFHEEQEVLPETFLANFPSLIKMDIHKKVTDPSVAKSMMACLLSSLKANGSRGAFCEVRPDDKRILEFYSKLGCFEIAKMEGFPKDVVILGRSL
The experiment in a line: Inhibition of human O-GlcNAcase.

Structures are written as SMILES.

`CCNC1=N[C@@H]2[C@@H](O)[C@H](O)[C@@H](C(F)F)O[C@@H]2S1`: the Papp in data set [1] came to 6.4 ×10⁻⁶ cm/s. Besides, half-maximal inhibition in data set [2] (IC50) required 7.9 nM.

The Papp is the rate of passage across a membrane or cell layer, normalised by area and donor concentration. Broadly, the IC50 is the concentration at which inhibition is half-maximal. A higher IC50 goes with weaker potency.
